Laboratory results published in patent US8530404B2, “Compounds and methods for treatment of cancer” (FibroGen, Inc., priority 2005, dated 2013).
Like-named read-outs stand apart in the source and are kept apart here.

Legend:
[1] = tested on: REDD1/RTP801 gene expression; assay: REDD1/RTP801 gene expression in Hep3B cells (Affymetrix microarray); format: cell-based, human; details: 25 μM, vs DMSO control
Method: (§1) To identify compounds useful in the methods of the present invention, the following studies were performed. The effect of compounds of the present invention on expression of various genes associated with anti-tumor activity (e.g., genes having anti-proliferative activity, genes having pro-apoptotic activity, genes having anti-tumor activity, etc.). In these experiments, the effect of compounds on BNIP3, BNIP3L, NDRG1, CDKN1C, and REDD1/RTP801 gene expression in various types of cultured tumor cells line was examined, including Hep3B cells (human hepatocellular carcinoma), Kelly neuroblastoma cells, and MCF7 cells (human breast cancer)
(§2) The effects of various compounds of the present invention on the expression of genes associated with tumor growth and progression were examined in Hep3B cells as follows. Hep3B cells (ATCC) were cultured in DMEM containing 8% fetal bovine serum (FBS) and antibiotics. For each experiment, Hep3 cells were added to 6-well tissue culture dishes (approximately 500,000 cells per well). After 8 hours, the media was replaced with DMEM containing 0.5% FBS. Sixteen hours later, various compounds of the present invention were added to the cultured cells to a final concentration of 25 μM. The cells were then harvested and added to RNA extraction buffer (RNeasy, Qiagen). RNA was isolated from cell lysates using RNeasy Mini spin columns (Qiagen) according to the manufacturer's instructions. Changes in expression of various gene transcript levels associated with tumor growth and progression were determined by Affymetrix microarray. Labeled probes were prepared and hybridized to U133A Affyrnetrix microarrays.
(§3) Changes in gene expression levels in vitro following compound addition are presented as fold change relative to gene expression levels observed in control cells treated with DMSO only. Data represents the average of two independent studies.

BNIP3 gene expression [2] = assay: BNIP3 gene expression in Hep3B cells (Affymetrix microarray); format: cell-based, human; details: 25 μM, vs DMSO control
Method: as §1, §2, §3

BNIP3L gene expression [3] = assay: In vivo BNIP3L gene expression in Swiss Webster mice (quantitative PCR); details: Mus musculus, iv, 4 h, single 60 mg/kg i.v. dose, four hours after administration, normalized to 18S, read-out: fold change in BNIP3L mRNA level
Method: (§4) The effects of various compounds of the present invention on the expression of genes associated with tumor growth and progression (e.g., expression of genes associated with anti-proliferative effects) were examined in vivo as follows. In these studies, male Swiss Webster mice (25 g) were administered a single intravenous (i.v.) dose of various compounds (60 mg/kg) of the present invention via the tail vein. Four hours after administration of compound, the kidneys and liver were removed and preserved in RNAlater (Ambion). RNA isolation and cDNA synthesis was carried out as follows. Murine kidney tissue was added to TRIzol (Invitrogen) and homogenized using a 5-mm stainless steel bead for 4 minutes at 25 Hz in a Mixer Mill 300 (Qiagen). Homogenates were extracted with chloroform according to the manufacturer's instructions and aqueous supernatants were isolated. The aqueous supernatants were combined with equal volumes of 70% ethanol and then loaded onto RNeasy Mini spin columns (Qiagen). RNA was isolated according to the manufacturer's instructions.
(§5) Synthesis of cDNA from the isolated total RNA was carried out using Omniscript reverse transcriptase (Qiagen) and random primers according to the manufacturer's instructions. Measurement of gene expression levels in compound-treated animals and in vehicle-treated control animals was performed by quantitative PCR using TaqMan Universal PCR Master Mix (Applied Biosystems) and TaqMan Assay-on-Demand assays (Applied Biosystems) in a Prism 7000 system instrument (Applied Biosystems), according to manufacturer's instructions. The assays used were as follows: 18S ribosomal RNA, Hs99999901_s1; BNIP3, Mm00833810_g1; BNIP3L, Mm00786306_s1; NDRG1, Mm00440447_m1. Each PCR amplification reaction included a standard curve and a water blank. Data for gene expression levels for BNIP3, BNIP3L, and NDRG1 were normalized to that of 18S ribosomal RNA within each sample. Data is presented as fold change in specific mRNA levels relative to that of non-treated control animals.

BNIP3L gene expression [4] = assay: BNIP3L gene expression in Hep3B cells (Affymetrix microarray); format: cell-based, human; details: 25 μM, vs DMSO control
Method: as §1, §2, §3

NDRG1 gene expression [5] = assay: NDRG1 gene expression in Hep3B cells (Affymetrix microarray); format: cell-based, human; details: 25 μM, vs DMSO control
Method: as §1, §2, §3

BNIP3 gene expression [6] = assay: In vivo BNIP3 gene expression in Swiss Webster mice (quantitative PCR); details: Mus musculus, iv, 4 h, single 60 mg/kg i.v. dose, four hours after administration, normalized to 18S, read-out: fold change in BNIP3 mRNA level
Method: as §4, §5

BNIP3 gene expression [7] = assay: BNIP3 gene expression in Kelly neuroblastoma cells; format: cell-based; details: Kelly cells; 20 μM; 20-24 hours; normalized to 18S RNA; vs DMSO control; read-out: fold-increase in BNIP3 mRNA expression
Method: as §1
(§6) The effects of various compounds of the present invention on the expression of genes associated with tumor growth and progression were examined in Kelly neuroblastoma cells as follows. Kelly neuroblastoma cells were grown in RPMI media. For each experiment, Kelly neuroblastoma cells were added to 96-well tissue culture plates (approximately 40,000 cells per well) such that the plated cells reached confluence the following day. On the following day, the cells were washed and the media replaced with RPMI containing 0.5% FBS. Various compounds of the present invention were added to the cultured cells to a final concentration of 20 μM, and the cells cultured for an additional 20-24 hours. DMSO (0.5%) was added to control cell cultures.
(§7) RNA was isolated from the Kelly neuroblastoma cells using a commercial kit and used for the preparation of cDNA. BNIP3, CDKN1C, and 18S RNA levels were measured using commercial kits (18S, Applied Biosystems cat#4319413E); BNIP3, Applied Biosystems cat#HS00969293 MH). RNA levels for BNIP3 and CDKN1C were normalized to that of 18S RNA and is presented as fold-change compared to that observed in DMSO control cultures. Kelly cell NDRG1 and BNIP3L mRNA levels were measured by Affymetrix microarray in a separate study. Cells were harvested after 6 hours incubation with 20 μM test compound or DMSO (0.5%) as control. RNA was isolated and labeled probes were prepared and hybridized to U133 Plus 2.0 Affymetrix microarrays. Changes in gene expression levels are presented as fold change compared to that of control (0.5% DMSO-treated) cultures.

BNIP3 gene expression [8] = assay: BNIP3 gene expression in MCF7 cells; format: cell-based; details: Homo sapiens; MCF7 cells; 20 μM; 20-24 hours; vs 0.5% DMSO control; read-out: fold-increase in BNIP3 mRNA expression
Method: as §1
(§8) The effects of various compounds of the present invention on the expression of genes associated with tumor growth and progression were examined in MCF7 breast cancer cells as follows. In some experiments, MCF7 (ATCC) cells were plated in 96-well tissue culture dishes (approximately 20,000 cells per well) and cultured in DMEM media supplemented with 10% serum. The following day, the cells were washed and the media was replaced with DMEM containing 0.5% FBS. Various compounds of the present invention were added to the cultured cells to a final concentration of 20 μM, and the cells cultured for an additional 20-24 hours. DMSO (0.5%) was added to control cell cultures. RNA was isolated as described above. Changes in gene expression levels are presented as fold change compared to that of control (0.5% DMSO-treated) cultures.
In other experiments, MCF7 cells were plated in 96-well tissue culture dishes as described above. After 24 hours, the cells were washed and the media was replaced with DMEM containing 0.5% FBS. Various compounds of the present invention were added to the cultured cells to a final concentration of 20 μM. DMSO (0.5%) was added to control cell cultures. After 24 hours, changes in gene expression of BNIP3 and 18S RNA were determined directly using one-step quantitative multiplex RT-PCR reactions according to the manufacturer's instructions (QuantiTect Multiplex RT-PCR Kit, Qiagen, catalog no. 204643). Changes in gene expression levels are presented as fold change compared to that of control (0.5% DMSO-treated) cultures.

CDKN1C gene expression [9] = assay: CDKN1C gene expression in MCF7 cells; format: cell-based; details: Homo sapiens; MCF7 cells; 20 μM; 20-24 hours; vs 0.5% DMSO control; read-out: fold-increase in CDKN1C mRNA expression
Method: as §1, §8

CDKN1C gene expression [10] = assay: CDKN1C gene expression in Kelly neuroblastoma cells; format: cell-based; details: Kelly cells; 20 μM; 20-24 hours; normalized to 18S RNA; vs DMSO control; read-out: fold-increase in CDKN1C mRNA expression
Method: as §1, §6, §7

NDRG1 gene expression [11] = assay: In vivo NDRG1 gene expression in Swiss Webster mice (quantitative PCR); details: Mus musculus, iv, 4 h; kidney; single 60 mg/kg i.v. dose; four hours after administration; normalized to 18S; read-out: fold change in NDRG1 mRNA level
Method: as §4, §5

Compound | fold-increase in REDD1/RTP801 mRNA expression [1] | fold-increase in BNIP3 mRNA expression (BNIP3 gene expression [2]) | fold induction at 60 mg/kg (BNIP3L gene expression [3]; liver) | fold-increase in BNIP3L mRNA expression (BNIP3L gene expression [4]) | fold-increase in NDRG1 mRNA expression (NDRG1 gene expression [5]) | fold induction at 60 mg/kg (BNIP3 gene expression [6]; liver) | fold induction at 20 µM (BNIP3 gene expression [7]) | fold induction at 20 µM (BNIP3 gene expression [8]) | fold induction at 20 µM (CDKN1C gene expression [9]) | fold induction at 20 µM (CDKN1C gene expression [10]) | fold induction at 60 mg/kg (NDRG1 gene expression [11]) | fold induction at 60 mg/kg (BNIP3L gene expression [3]; kidney) | fold induction at 60 mg/kg (BNIP3 gene expression [6]; kidney)
O=C(O)c1c[nH]c2c(ccc3cccnc32)c1=O [Compound F, 4-Oxo-1,4-dihydro-[1,10]phenanthroline-3-carboxylic acid] | 6.3 fold | 3.5 fold | 1.3 | 3.2 fold | 5.4 fold | 1.1 |  |  |  |  |  |  | 
COc1ccc(CCN(CCC(=O)NO)S(=O)(=O)c2ccc(NC(=O)N(Cc3ccccc3)Cc3ccccc3)cc2)cc1 [Compound G, 3-{[4-(3,3-Dibenzyl-ureido)-benzenesulfonyl]-[2-(4-methoxy-phenyl)-ethyl]-amino}-N-hydroxy-propionamide] | 14.1 fold | 4.2 fold |  | 4.3 fold | 6.8 fold |  |  |  |  |  |  |  | 
O=C(O)CNC(=O)c1nc2cc(Cl)ccc2cc1O [Compound H, [(7-Chloro-3-hydroxy-quinoline-2-carbonyl)-amino]-acetic acid] | 2.4 fold | 2.0 fold |  | 1.5 fold | 2.4 fold |  | 5.9 | 3.2 | 0.7 | 11.6 |  |  | 
COc1ccc2c(O)c(C(=O)NCC(=O)O)nc(Cl)c2c1 [Compound I, [(1-Chloro-4-hydroxy-7-methoxy-isoquinoline-3-carbonyl)-amino]-acetic acid] | 3.8 fold | 2.1 fold |  | 1.7 fold | 3.3 fold |  |  |  |  |  |  |  | 
O=C(O)CNC(=O)c1ncc2cc(Cl)c(Cl)cc2c1O [Compound J, [(6,7-Dichloro-4-hydroxy-isoquinoline-3-carbonyl)-amino]-acetic acid] |  |  |  |  |  |  | 8.9 | 3.3 | 0.8 | 6.9 | 1.7 | 1.3 | 2
O=C(O)CNC(=O)c1ncc2cc(Oc3ccccc3)ccc2c1O [Compound K, [(4-Hydroxy-7-phenoxy-isoquinoline-3-carbonyl)-amino]-acetic acid] | 4.8 fold | 3.0 fold |  | 2.2 fold | 3.3 fold |  |  | 7.7 |  |  |  |  | 
C[C@H](NC(=O)c1ncc2cc(Sc3ccccc3)ccc2c1O)C(=O)O [Compound L, (S)-2-[(4-Hydroxy-7-phenylsulfanyl-isoquinoline-3-carbonyl)-amino]-propionic acid] |  |  |  |  |  |  | 32.8 | 4.8 | 0.2 | 120 | 1 | 3.4 | 2.8
O=C(O)CNC(=O)c1nc(Oc2ccccc2)c2cc(Oc3ccccc3)ccc2c1O [Compound M, [(4-Hydroxy-1,7-diphenoxy-isoquinoline-3-carbonyl)-amino]-acetic acid] |  |  |  |  |  |  | 27.6 | 0.4 | 2.1 | 3.4 |  |  | 
O=C(O)CNC(=O)c1ncc2cc(Sc3ccccc3)ccc2c1O [Compound N, [(4-hydroxy-7-phenylsulfanyl-isoquinoline-3-carbonyl)-amino]-acetic acid] | 5.7 fold | 3.6 fold |  | 2.8 fold | 3.7 fold |  | 27.1 | 4.9 | 0.4 | 183 | 1.2 | 3.4 | 3.1
